Test results taken from patent US9447083B2, “N-acylhydrazone derivatives for selective T cell inhibitor and anti-lymphoid malignancy drug” (CHONG KUN DANG PHARMACEUTICAL CORP., priority 2012, dated 2016).

Tested on: Jurkat T cells
Test: Pro-apoptotic activity on Jurkat T cells (FITC-Annexin V / 7-AAD flow cytometry)
Format: cell-based
Details: Homo sapiens, 72 hours, cells stained with FITC-Annexin V and 7-AAD among total cells, read-out: Cell Apoptosis Effect to Jurkat T Cell (% in 5 μM)
Protocol: In order to investigate the effects of the prepared compounds, the apoptosis-inducing effects of the compounds on human T cell acute lymphoblastic leukemia cell line, Jurkat T cells, were evaluated in the following manner.
Jurkat T cells cultured in RPMI medium containing 10% fetal bovine serum (FBS) were collected and stained with trypan blue (Sigma). […] Then, the cells were centrifuged at 1200 rpm at room temperature for 5 minutes and re-suspended in 10% FBS-containing RPMI medium at a concentration of 1.5×10^5 cells/mL. 200 μL of the cell suspension was dispensed into each well of a flat bottom 96-well plate (Costar). Then, the cells were treated with 10 μL of the diluted compounds in RPMI medium at final concentrations of […] or 5 μM, and incubated in a 5% CO2 incubator at 37° C. for 72 hours. In a vehicle control group, the cells were treated with 10 μL of RPMI medium containing 1% of dimetylsulfoxide (DMSO, Sigma). The incubated cells were harvested, put into 5-mL FACS tubes (BD Falcon), washed with 1 mL of phosphate buffered saline (PBS), and then re-suspended in 0.1 mL of binding buffer (10 mM Hepes-NaOH, pH 7.4, 140 mM NaCl, […] CaCl2). The suspended cells were stained with fluorescein isothiocyanate (FITC)-Annexin V (BD Biosciences) and 7-amino-actinomycin D (7-AAD, e-Biosciences) at room temperature for 15 minutes. The stained cells were suspended in 0.3 mL of binding buffer and analyzed by a flow cytometer. Apoptosis was determined by the ratio (%) of cells stained with FITC-Annexin V and 7-AAD among the total cells (see Tables 10 and 11).

Structure (SMILES)	cytotoxicity at 5 µM [%]
Cc1cc(-c2cnc(N)nc2)cc(C)c1OCC(=O)N/N=C/c1ccc2cc[nH]c2c1 [Compound 152, (E)-N′-((1H-indol-6-yl)methylene)-2-(4-(2-aminopyrimidin-5-yl)-2,6-dimethylphenoxy)acetohydrazide]	90
Cc1cc(Cl)cc(C)c1OCC(=O)N/N=C/c1cccc2[nH]ccc12 [Compound 155, (E)-N′-((1H-indol-4-yl)methylene)-2-(4-chloro-2,6-dimethylphenoxy)acetohydrazide]	100
Cc1cc(Cl)cc(C)c1OCC(=O)N/N=C/c1c[nH]c2ccccc12 [Compound 156, (E)-N′-((1H-indol-3-yl)methylene)-2-(4-chloro-2,6-dimethylphenoxy)acetohydrazide]	90
Cc1cc(Cl)cc(C)c1OCC(=O)N/N=C/c1ccc2cc[nH]c2c1 [Compound 157, (E)-N′-((1H-indol-6-yl)methylene)-2-(4-chloro-2,6-dimethylphenoxy)acetohydrazide]	100
Cc1cc(C)c(SCC(=O)N/N=C/c2c[nH]c3ccccc23)c(C)c1 [Compound 158, (E)-N′-((1H-indol-3-yl)methylene)-2-(mesitylthio)acetohydrazide]	100
Cc1cc(C)c(SCC(=O)N/N=C/c2ccc3cc[nH]c3c2)c(C)c1 [Compound 159, (E)-N′-((1H-indol-6-yl)methylene)-2-(mesitylthio)acetohydrazide]	100
Cc1cc(C)c(OCC(=O)N(C)/N=C/c2cccc3c2ccn3C)c(C)c1 [Compound 164, (E)-2-(mesityloxy)-N-methyl-N′-((1-methyl-1H-indol-4-yl)methylene)acetohydrazide]	100
Cc1cc(C)c(OCC(=O)N(CCO)/N=C/c2cccc3[nH]ccc23)c(C)c1 [Compound 177, (E)-N′-((1H-indol-4-yl)methylene)-N-(2-hydroxyethyl)-2-(mesityloxy)acetohydrazide]	100
Cc1cc(C)c(OCC(=O)N/N=C/c2cccc3c2ccn3CCO)c(C)c1 [Compound 180, (E)-N′-((1-(2-hydroxyethyl)-1H-indol-4-yl)methylene)-2-(mesityloxy)acetohydrazide]	90
Cc1cc(C)c(OCC(=O)N/N=C/c2cccc3[nH]ccc23)c(-c2cccnc2)c1 [Compound 182, (E)-N′-((1H-indol-4-yl)methylene)-2-(2,4-dimethyl-6-(pyridin-3-yl)phenoxy)acetohydrazide]	100
Cc1cc(C)c(OCC(=O)N/N=C/c2ccc3cc[nH]c3c2)c(-c2cccnc2)c1 [Compound 183, (E)-N′-((1H-indol-6-yl)methylene)-2-(2,4-dimethyl-6-(pyridin-3-yl)phenoxy)acetohydrazide]	100
Cc1cc(C)c(OCC(=O)N/N=C/c2ccc3[nH]ccc3c2)c(-c2cccnc2)c1 [Compound 184, (E)-N′-((1H-indol-5-yl)methylene)-2-(2,4-dimethyl-6-(pyridin-3-yl)phenoxy)acetohydrazide]	100
Cc1ncccc1OCC(=O)N/N=C/c1cccc2[nH]ccc12 [Compound 187, (E)-N′-((1H-indol-4-yl)methylene)-2-((2-methylpyridin-3-yl)oxy)acetohydrazide]	100
Cc1ccnc(C)c1OCC(=O)N/N=C/c1cccc2[nH]ccc12 [Compound 190, (E)-N′-((1H-indol-4-yl)methylene)-2-(2,4-dimethylpyridin-3-yloxy)acetohydrazide]	100
Cc1ccnc(C)c1OCC(=O)N/N=C/c1ccc2cc[nH]c2c1 [Compound 191]	100
O=C(COc1ccccc1C(F)(F)F)N/N=C/c1cccc2[nH]ccc12 [Compound 192, (E)-N′-((1H-indol-4-yl)methylene)-2-(2-(trifluoromethyl)phenoxy)acetohydrazide]	90
O=C(COc1ccccc1C(F)(F)F)N/N=C/c1ccc2[nH]ccc2c1 [Compound 193]	100
O=C(COc1ccccc1C(F)(F)F)N/N=C/c1ccc2cc[nH]c2c1 [Compound 194]	100
Cc1cc(C)c(OCC(=O)N(CCO)/N=C/c2ccc3cc[nH]c3c2)c(C)c1 [Compound 195, (E)-N′-((1H-indol-6-yl)methylene)-N-(2-hydroxyethyl)-2-(mesityloxy)acetohydrazide]	100
O=C(COc1cccnc1Cl)N/N=C/c1cccc2[nH]ccc12 [Compound 196, (E)-N′-((1H-indol-4-yl)methylene)-2-(2-chloropyridin-3-yloxy)acetohydrazide]	100

Structure (SMILES)	cytotoxicity at 5 µM [%]
Cc1cc(C)c(OCC(=O)N(CCN2CCOCC2)/N=C/c2ccc3cc[nH]c3c2)c(C)c1 [Compound 198]	100
Cc1cc(C)c(OCC(=O)N(CCN2CCCC2)/N=C/c2ccc3cc[nH]c3c2)c(C)c1 [Compound 201]	100
Cc1cc(C)c(OCC(=O)N/N=C/c2ccc3[nH]cnc3c2)c(C)c1 [Compound 205]	100
Cc1cc(C)c(OCC(=O)N/N=C/c2ccc3snnc3c2)c(C)c1 [Compound 206]	100
Cc1cc(C)c(OCC(=O)N/N=C/c2cccc3[nH]cc(CN4CCC(C)CC4)c23)c(C)c1 [Compound 211]	100
Cc1cc(C)c(OCC(=O)N/N=C/c2ccc3cc[nH]c3c2)c(-c2ccncc2)c1 [Compound 217, (E)-N′-((1H-indol-6-yl)methylene)-2-(2,4-dimethyl-6-(pyridin-4-yl)phenoxy)acetohydrazide]	100
Cc1cc(C)c(OCC(=O)N/N=C/c2ccc3cc[nH]c3c2)c(-c2ccoc2)c1 [Compound 218, (E)-N′-((1H-indol-6-yl)methylene)-2-(2-(furan-3-yl)-4,6-dimethylphenoxy)acetohydrazide]	100
Cc1cc(CO)cc(C)c1OCC(=O)N/N=C/c1cccc2[nH]ccc12 [Compound 227, (E)-N′-((1H-indol-4-yl)methylene)-2-(4-(hydroxymethyl)-2,6-dimethylphenoxy)acetohydrazide]	90
Cc1cc(CO)cc(C)c1OCC(=O)N/N=C/c1ccc2cc[nH]c2c1 [Compound 228, (E)-N′-((1H-indol-6-yl)methylene)-2-(4-(hydroxymethyl)-2,6-dimethylphenoxy)acetohydrazide]	100
Cc1cc(N)cc(C)c1OCC(=O)N/N=C/c1cccc2[nH]ccc12 [Compound 232, (E)-N′-((1H-indol-4-yl)methylene)-2-(4-amino-2,6-dimethylphenoxy)acetohydrazide]	100
Cc1cc(C)c(OCC(=O)N(CO)/N=C/c2ccc3cc[nH]c3c2)c(C)c1 [Compound 233, (E)-N′-((1H-indol-6-yl)methylene)-N-(hydroxymethyl)-2-(mesityloxy)acetohydrazide]	100
Cc1cc(C)c(OCC(=O)N(COC(=O)CN(C)C)/N=C/c2ccc3cc[nH]c3c2)c(C)c1 [Compound 236, (E)-(2-((1H-indol-6-yl)methylene)-1-(2-(mesityloxy)acetyl)hydrazinyl)methyl 2-(dimethylamino)acetate]	100
Cc1cc(C#N)cc(C)c1OCC(=O)N/N=C/c1ccc2cc[nH]c2c1 [Compound 237, (E)-N′-((1H-indol-6-yl)methylene)-2-(4-cyano-2,6-dimethylphenoxy)acetohydrazide]	100
Cc1cc(C)c(OCC(=O)N(COC(=O)CN(C)C)/N=C/c2cccc3[nH]ccc23)c(C)c1 [Compound 238, (E)-(2-((1H-indol-4-yl)methylene)-1-(2-(mesityloxy)acetyl)hydrazinyl)methyl 2-(dimethylamino)acetate]	100
Cc1cc(C(N)=O)cc(C)c1OCC(=O)N/N=C/c1ccc2cc[nH]c2c1 [Compound 239]	100
CC(=O)N(/N=C/c1ccc2cc[nH]c2c1)C(=O)COc1c(C)cc(C)cc1C [Compound 243, (E)-N′-((1H-indol-6-yl)methylene)-N-acetyl-2-(mesityloxy)acetohydrazide]	100
Cc1cc(C)c(OCC(=O)N(CO)/N=C/c2cccc3[nH]ccc23)c(C)c1 [Compound 244, (E)-N′-((1H-indol-4-yl)methylene)-N-(hydroxymethyl)-2-(mesityloxy)acetohydrazide]	100
Cc1cc(C)c(OCC(=O)N(COC(=O)c2ccc(CN3CCOCC3)cc2)/N=C/c2cccc3[nH]ccc23)c(C)c1 [Compound 245, (E)-(2-((1H-indol-4-yl)methylene)-1-(2-(mesityloxy)acetyl)hydrazinyl)methyl 4-(morpholinomethyl)benzoate]	100
CC(=O)OCN(/N=C/c1ccc2cc[nH]c2c1)C(=O)COc1c(C)cc(C)cc1C [Compound 252, (E)-(2-((1H-indol-6-yl)methylene)-1-(2-(mesityloxy)acetyl)hydrazinyl)methyl acetate]	100
Cc1cc(C)c(OCC(=O)N/N=C/c2ccc3c(Br)c[nH]c3c2)c(C)c1 [Compound 256]	100
